These results are taken from patent US9359308B2, “Pyrazine kinase inhibitors” (Portola Pharmaceuticals, Inc., priority 2011, dated 2016).

In this experiment the target is T1, full length active recombinant SYK enzyme (Homo sapiens, UniProt P43405).
T1 construct: full length active recombinant SYK enzyme (Millipore, Calif.); purchased Millipore
Nature of the experiment: Inhibition of Syk tyrosine phosphorylation activity (LANCE TR-FRET kinase assay). To be noted: activity in the Syk assays, class symbols. Format: biochemical. The procedure, abridged: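 1 nM full-length active recombinant SYK phosphorylated 550 nM biotin-DEEDYESP-OH with 100 μM ATP in 50 mM Tris pH 7.5, 5 mM MgCl2, 1 mM DTT and 3% DMSO for 1 h at room temperature. After EDTA quench, Eu-anti-phosphotyrosine/SA-APC TR-FRET was read after 1 h. IC50s came from non-linear regression.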
For orientation: Time-resolved FRET reads energy transfer from a long-lived donor to a nearby acceptor.

pIC50: −log10 of the molar value.

What is called pIC50 is −log10 of the IC50, conventionally taken in molar units. On to `NC(=O)c1ncc(N[C@@H]2CCCC(F)(F)[C@@H]2N)nc1Nc1cnc2cc(F)ccc2c1` [Example 227, 5-((1R,2R)-2-amino-3,3-difluorocyclohexylamino)-3-(7-fluoroquinolin-3-ylamino)pyrazine-2-carboxamide], for which the pIC50 was 7.00 to 8.00. Regarding `NC(=O)c1ncc(N[C@@H]2CCOC[C@@H]2N)nc1Nc1cccc(-c2ncccn2)c1` [Example 82, 5-((3R,4R)-3-aminotetrahydro-2H-pyran-4-ylamino)-3-(3-(pyrimidin-2-yl)phenylamino)pyrazine-2-carboxamide], the pIC50 is 8.00 to 9.00. For `NC(=O)c1ncc(N[C@@H]2CCCC[C@@H]2N)nc1Nc1cc(-n2ccnn2)cc(-n2nccn2)c1` [Example 429, 3-((3-(1H-1,2,3-triazol-1-yl)-5-(2H-1,2,3-triazol-2-yl)phenyl)amino)-5-(((1R,2S)-2-aminocyclohexyl)amino)pyrazine-2-carboxamide], the pIC50 was 8.00 to 9.00.

Turning to `NC(=O)c1ncc(NC2CCC(N)CC2)nc1Nc1cccc(-n2nccn2)c1` (centres unmarked) [Example 188, 3-(3-(2H-1,2,3-triazol-2-yl)phenylamino)-5-((1r,4r)-4-aminocyclohexylamino)pyrazine-2-carboxamide], the pIC50 was 8.00 to 9.00. With `Cc1cc(Nc2nc(N[C@H](CC(C)C)C(N)=O)cnc2C(N)=O)sn1` [Example 22, (R)-5-(1-amino-4-methyl-1-oxopentan-2-ylamino)-3-(3-methylisothiazol-5-ylamino)pyrazine-2-carboxamide], the pIC50 was 8.00 to 9.00. The result for `NC(=O)c1ncc(N[C@@H]2CCCC[C@@H]2N)nc1Nc1cccnc1` [Example 417, 5-(((1R,2S)-2-aminocyclohexyl)amino)-3-(pyridin-3-ylamino)pyrazine-2-carboxamide] reads > 9.00; that for `NC(=O)c1ncc(N[C@@H]2CCCC[C@@H]2N)nc1Nc1cc(-n2cccn2)cc(-n2cccn2)c1` [Example 44, 5-((1R,2S)-2-aminocyclohexylamino)-3-(3,5-di(1H-pyrazol-1-yl)phenylamino)pyrazine-2-carboxamide], 8.00 to 9.00; that for `NC(=O)c1ccc(Nc2nc(N[C@@H]3CCCC(F)(F)[C@@H]3N)cnc2C(N)=O)cc1` [Example 19, 5-((1R,2R)-2-amino-3,3-difluorocyclohexylamino)-3-(4-carbamoylphenylamino)pyrazine-2-carboxamide], 7.00 to 8.00. For `CC[C@@H](Nc1cnc(C(N)=O)c(Nc2cc(F)c3ncccc3c2)n1)C(N)=O` [Example 208, (R)-5-(1-amino-1-oxobutan-2-ylamino)-3-(8-fluoroquinolin-6-ylamino)pyrazine-2-carboxamide], the pIC50 was 8.00 to 9.00. As for `CC(=O)N1CCC[C@H](Nc2cnc(C(N)=O)c(Nc3cnc4ccccc4c3)n2)C1` [Example 109, (S)-5-((1-acetylpiperidin-3-yl)amino)-3-(quinolin-3-ylamino)pyrazine-2-carboxamide], the pIC50 is < 6.00. With `NC(=O)c1ncc(N[C@@H](C(N)=O)C2CC2)nc1Nc1ccc2ncccc2c1` [Example 76, (R)-5-(2-amino-1-cyclopropyl-2-oxoethylamino)-3-(quinolin-6-ylamino)pyrazine-2-carboxamide], the pIC50 is 8.00 to 9.00. For `Cc1ccc(Nc2nc(N[C@H](CC(C)C)C(N)=O)cnc2C(N)=O)cc1` [Example 69, (R)-5-(1-amino-4-methyl-1-oxopentan-2-ylamino)-3-(p-tolylamino)pyrazine-2-carboxamide], the pIC50 is 7.00 to 8.00. With `NC(=O)c1ncc(N[C@@H]2CCCC(F)(F)[C@@H]2N)nc1Nc1cncc2ccccc12` [Example 363, 5-((1R,2R)-2-amino-3,3-difluorocyclohexylamino)-3-(isoquinolin-4-ylamino)pyrazine-2-carboxamide], the pIC50 was 7.00 to 8.00.

As to `NC(=O)c1ncc(N[C@@H]2CCCC[C@@H]2N)nc1Nc1ccc(N2CCCCC2=O)cc1` [Example 441, 5-(((1R,2S)-2-aminocyclohexyl)amino)-3-((4-(2-oxopiperidin-1-yl)phenyl)amino)pyrazine-2-carboxamide], the pIC50 was 7.00 to 8.00.
